The values below come from paper PMC11672292, “Discovery of Balasubramide Derivative with Tissue‐Specific Anti‐Inflammatory Activity Against Acute Lung Injury by Targeting VDAC1” (Advanced Science, 2024).

The subject of one assay is PBMCs from ALI patients. Nature of the assay: Cytosolic mtDNA release in LPS-stimulated PBMCs from ALI patients. To be noted: 10 µM. In kind it is cell-based, human. The procedure: PBMCs isolation and stimulation were performed as previously described.^[ [40], [66] ^] Anticoagulated whole blood diluted equally with PBS was added to a 15 mL sterile centrifuge tube containing lymphocyte separation solution (#C0025, Beyotime, China), and centrifuged for 10 min at 2500 rpm. The layer of PBMCs at the plasma‐density gradient medium interface was transferred to a new sterile tube, dispersed with 10 mL DMEM, and centrifuged for 5 min at 800 rpm. The mononuclear cells at the bottom of the tube were resuspended in DMEM with 10% FBS at 5 × 10^5 cells/well in 24‐well plates. After discarding the supernatant, the PBMCs were incubated with DMSO or 10 µM (+)3C‐20 for 3 h in DMEM, stimulated with 100 ng mL^−1 LPS for another 3 h, and lysed with TRIzol reagent for total RNA extraction and following indicated experiments.

Assay [1] addresses T1, recombinant human VDAC1 protein (rhVDAC1) (Homo sapiens, UniProt P21796).
T1 construct: purchased Atagenix, China
Nature of the assay: Surface plasmon resonance (SPR). In kind it is binding. The method, then:
To investigate the interaction of (+)3C‐20 and recombinant human VDAC1 protein (rhVDAC1), SPR experiments were performed. The overall experimental procedures were based on previous reports and had been improved with some modifications.^[ [35] ^] Briefly, 10 µM (+)3C‐20 was printed on the 3D photo‐crosslinking chip via the Biodot AD1520 chip array printer through a C─H covalent bond connection, and DMSO was conducted as a negative control at the same time. Following the vacuum‐dying and photo‐crosslinking reaction of the chip, the surface of the chip was flowed through with different concentrations (10, 40, 160, 640, 2560 nmol L^−1) of rhVDAC1 protein in PBST at 0.5 µL s^−1 for 600 s. Then, the proteins were dissociated from the surface of the chip in Glycine‐HCl (pH 2.0) at 2 µL s^−1 for 360 s. The binding signals (RU) were detected dynamically using Berthold bScreen LB 991. The RU responses of (+)3C‐20 with rhVDAC1 protein were recorded and ranked to determine the interaction intensity level, and the binding curve and affinity data were calculated by the system according to the Langmuir binding model.

The subject of assay [2] is LPS-stimulated RAW264.7 cells. Nature of the assay: LPS-induced TNF-α release in RAW264.7 macrophages (ELISA). In kind it is cell-based, mouse. To be noted: Mus musculus, RAW264.7 cells. The method, then: The anti‐inflammatory effects of all (+)‐balasubramide derivatives were evaluated in Lipopolysaccharide (LPS, L2630, Sigma–Aldrich, USA)‐induced macrophage inflammation model. RAW264.7 cells were pretreated with various compounds or (+)3C‐20 at different concentrations for 3 h, and then stimulated with LPS (100 ng mL^−1) for 2 h for the detection of pro‐inflammatory factors expressions. Similarly, following 3 h co‐incubation with (+)3C‐20, mouse BMDMs were stimulated with LPS (100 ng mL^−1) for 3 h. TNF‐α protein in the culture medium supernatant was measured by a commercial ELISA kit (#1 217 202, DAKEWE, China) following the manufacture's protocols.

In assay [3] the test system is intratracheal LPS-induced ALI mice. Nature of the assay: Intratracheal instillation of LPS-induced ALI model. In kind it is in vivo, mouse. The procedure: The intratracheal instillation of the LPS‐induced ALI model in mice has been previously validated.^[ [60], [61] ^] […] The injection volume of all groups was 10 mL kg^−1. […] The mice were fixed in dorsal recumbency, then the skins and muscles of the mice were separated to expose the tracheal after disinfection. Subsequently, mice were intratracheally injected with 50 µL LPS (20 mg kg^−1) or PBS into the lung through tracheal cartilage rings by using insulin syringes and observed after stitching up the muscles and skins. At 6 h after LPS injection, mice were euthanized to collect samples required for subsequent experiments.
After mice were sacrificed, the left lung tissue fixed with 4% paraformaldehyde was embedded in paraffin, cut into 5 µm thick sections, and stained with hematoxylin and eosin.
Mice were stimulated and treated as indicated in experiments and the lung was lavaged three times through the trachea with 500 µL pre‐chilled PBS buffer. The fluids were merged and centrifuged at 600 × g for 10 min. The supernatant was collected to measure total protein using the BCA kit and for pro‐inflammatory cytokines detection by ELISA described above, and cell pellets after centrifugation were resuspended in FACS buffer (PBS with 1% FBS). […] Finally, the samples were washed twice with FACS buffer and analyzed with Cytoflex S (Beckman coulter, USA)

For assay [4], the target named is T2, VDAC1 oligomerization in LPS-primed BMDMs (Mus musculus, UniProt Q60932).
T2 construct: endogenous in cells; host or cells: primary bone marrow-derived macrophages (BMDMs) from C57BL/6J mice
T2 sequence (Q60932 14-296): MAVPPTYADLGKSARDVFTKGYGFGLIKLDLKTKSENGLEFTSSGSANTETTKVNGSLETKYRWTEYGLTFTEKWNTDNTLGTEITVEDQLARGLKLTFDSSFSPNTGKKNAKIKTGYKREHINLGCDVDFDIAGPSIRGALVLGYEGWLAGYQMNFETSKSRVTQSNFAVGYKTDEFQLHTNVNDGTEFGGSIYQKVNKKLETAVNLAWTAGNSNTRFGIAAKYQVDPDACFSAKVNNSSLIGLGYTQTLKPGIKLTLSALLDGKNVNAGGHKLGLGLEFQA
Nature of the assay: VDAC1 cross-linking (oligomerization) assay. To be noted: DSS cross-linking, immunoblotting. In kind it is cell-based. The method, then: The cells (BMDM, iBMDM, RAW264.7, and HEK293T) treated with (+)3C‐20 were washed twice by PBS and lysed in RIPA. The lysate was incubated for 30 min at 30 °C with the cross‐linking reagent DSS (1 mM), mixed with 4 × laemmli buffer with DTT, subjected to SDS‐PAGE and immunoblotting analyzed with anti‐VDAC1 antibody.

T1 sequence (P21796 whole entry): as the sequence (Q60932 14-296) above, with N55T, V129M, S160A, V227I counted along it

For the molecule `O=C(CCc1ccc(C(F)(F)F)cc1)O[C@@H]1C(=O)NCCc2c([nH]c3ccccc23)[C@H]1c1ccc(C(F)(F)F)cc1` [(+)3C-20], the “cytosolic mtDNA release” value in the assay with PBMCs from ALI patients is on record as “markedly reduced”. Also, the Kd in assay [1] (hVDAC1, printed in picture of Figure 5G) is 3.95 µM; in assay [1] (rhVDAC1), around 3.95 µM. The inhibition at 10 µM in assay [2] (10 μM + LPS (100 ng/mL), n = 3, read-out: Inhibition rate (%) of TNF-α release) was 82 ± 3.93%. In addition, the IC50 in assay [2] (read-out: IC50, inhibition of LPS-induced TNF-α release) was 11.8 µM. Also, the “therapeutic effect in H&E lung histology” value in assay [3] (50 mg kg^−1, compared to dexamethasone 5 mg kg^−1) was “better therapeutic effect”. For the same molecule, the “survival rate of mice” value in assay [3] (after intratracheal instillation of LPS, 72 h observation, versus vehicle group) was “increased the survival rate”. Besides, the “lung index (lung organ coefficient)” value in assay [3] (mice, 50 mg kg^−1 i.p., LPS 20 mg kg^−1 i.t.) is “reverse the upregulation of lung index”. Moreover, the lung wet/dry ratio result in assay [3] (pre-treatment at 50 mg kg^−1, LPS 20 mg kg^−1 i.t.) was “significantly reduced”. For the same molecule, the VDAC1 oligomerization result in assay [4] is reported as “inhibit VDAC1 oligomerization in a dose‐dependent manner”.
